Source: US10034477B2, “Pyrido-1,3-oxazine-2,4-dione compounds with fungicidal activity” (Dow AgroSciences LLC, priority 2016, dated 2018)
Read-outs that look alike come from different tables or passages of the source. Blank lines part the entries; values can stand above or below the molecule they belong to.

Key:
Phakopsora pachyrhizi = assay: Fungicidal activity: Asian soybean rust (PHAKPA), disease control on soybean seedlings; assay type: in vivo; details: soybean (variety Williams 82)
Description: Technical grades of materials were dissolved in acetone, which were then mixed with nine volumes of H2O containing 0.011% Tween 20. The fungicide solutions were applied onto soybean seedlings using an automated booth sprayer to run-off. All sprayed plants were allowed to air dry prior to further handling. Soybean plants (variety Williams 82) were grown in soil-less Metro mix, with one plant per pot. Two week old seedlings were used for testing. Plants were inoculated either 3 days prior to or 1 day after fungicide treatments. Plants were incubated for 24 h in a dark dew room at 22° C. and 100% relative humidity then transferred to a growth room at 23° C. for disease to develop. Disease severity was assessed on the sprayed leaves.

Zymoseptoria tritici = assay: Fungicidal activity: leaf blotch of wheat (SEPTTR), disease control on wheat seedlings; assay type: in vivo; details: LV activity at 121.5 g/H, wheat (variety Yuma)
Description: (§1) Technical grades of materials were dissolved in acetone, which were then mixed with nine volumes of water (H2O) containing 110 ppm Triton X-100. The fungicide solutions were applied onto wheat seedlings using an automated booth sprayer to run-off. All sprayed plants were allowed to air dry prior to further handling. All fungicides were evaluated using the aforementioned method for their activity vs. all target diseases, unless stated otherwise. Wheat leaf blotch and brown rust activity were also evaluated using track spray applications, in which case the fungicides were formulated as EC formulations, containing 0.1% Trycol 5941 in the spray solutions. Wheat plants (variety Yuma) were grown from seed in a greenhouse in 50% mineral soil/50% soil-less Metro mix until the first leaf was fully emerged, with 7-10 seedlings per pot. These plants were inoculated with an aqueous spore suspension of Zymoseptoria tritici either prior to or after fungicide treatments. After inoculation the plants were kept in 100% relative humidity (one day in a dark dew chamber followed by two to three days in a lighted dew chamber at 20° C.) to permit spores to germinate and infect the leaf. The plants were then transferred to a greenhouse set at 20° C. for disease to develop. When disease symptoms were fully expressed on the 1st leaves of untreated plants, infection levels were assessed on a scale of 0 to 100 percent disease severity. Percent disease control was calculated using the ratio of disease severity on treated plants relative to untreated plants.

Puccinia triticina = assay: Fungicidal activity: wheat brown rust (PUCCRT), disease control on wheat seedlings; assay type: in vivo; details: LV activity at 121.5 g/H, wheat (variety Yuma)
Description: as §1, with “plants. Wheat plants (variety Yuma) were grown from seed in a greenhouse in 50% mineral soil/50% soil-less Metro mix until the first leaf was fully emerged, with 7-10 seedlings per pot. These plants were inoculated with an aqueous spore suspension of Puccinia triticina either prior to or after fungicide treatments. After inoculation the plants were kept in a dark dew room at 22° C. with 100% relative humidity overnight to permit spores to germinate and infect the leaf. The plants were then transferred to a greenhouse set at 24° C. for disease to develop. Fungicide formulation, application and disease assessment followed the procedures as described in the Example A. Results of the evaluations are shown below in Table 4.” for “plants.”

[1] = 24 h, 1 Day Protectant, read-out: PHAKPA 1DP disease control rating
[2] = 24 h, 1 Day Protectant, read-out: SEPTTR 1DP disease control rating
[3] = 72 h, 3 Day Curative, read-out: SEPTTR 3DC disease control rating
[4] = 24 h, 1 Day Protectant, read-out: PUCCRT 1DP disease control rating
[5] = 72 h, 3 Day Curative, read-out: PUCCRT 3DC disease control rating
[6] = 72 h, 3 Day Curative, read-out: PHAKPA 3DC disease control rating

melting point: 68 to 84 °C
SMILES: COc1ccnc2c(=O)n([C@@H](C)C(=O)O[C@@H](C)C(c3ccc(F)cc3)c3ccc(F)cc3)c(=O)oc12 [Compound 1]
pest or weed control at 25 ppm (Phakopsora pachyrhizi; [1]): ≤ 80%
pest or weed control at 121.5 g/ha (Zymoseptoria tritici; [2]): > 80%
pest or weed control at 121.5 g/ha (Zymoseptoria tritici; [3]): > 80%
pest or weed control at 121.5 g/ha (Puccinia triticina; [4]): > 80%
pest or weed control at 121.5 g/ha (Puccinia triticina; [5]): ≤ 80%

SMILES: COc1ccnc2c(=O)n([C@@H](C)C(=O)O[C@@H](C)C(c3ccc(Cl)cc3)c3ccc(Cl)cc3)c(=O)oc12 [Compound 27]
pest or weed control at 25 ppm (Phakopsora pachyrhizi; [1]): ≤ 80%
pest or weed control at 25 ppm (Phakopsora pachyrhizi; [6]): ≤ 80%
pest or weed control at 121.5 g/ha (Zymoseptoria tritici; [2]): > 80%
pest or weed control at 121.5 g/ha (Zymoseptoria tritici; [3]): > 80%
pest or weed control at 121.5 g/ha (Puccinia triticina; [4]): ≤ 80%

SMILES: COc1ccnc2c(=O)n([C@@H](C)C(=O)O[C@@H](C)[C@H](Oc3ccccc3Cl)c3ccccc3)c(=O)oc12 [Compound 21]
pest or weed control at 25 ppm (Phakopsora pachyrhizi; [6]): ≤ 80%
pest or weed control at 121.5 g/ha (Zymoseptoria tritici; [2]): > 80%
pest or weed control at 121.5 g/ha (Zymoseptoria tritici; [3]): ≤ 80%
pest or weed control at 121.5 g/ha (Puccinia triticina; [4]): > 80%

SMILES: COc1cc(Cl)ccc1C(c1ccc(Cl)cc1OC)[C@H](C)OC(=O)[C@H](C)n1c(=O)oc2c(OC)ccnc2c1=O [Compound 26]
pest or weed control at 25 ppm (Phakopsora pachyrhizi; [1]): ≤ 80%
pest or weed control at 121.5 g/ha (Zymoseptoria tritici; [2]): > 80%
pest or weed control at 121.5 g/ha (Zymoseptoria tritici; [3]): > 80%
pest or weed control at 121.5 g/ha (Puccinia triticina; [4]): > 80%

SMILES: COc1ccnc2c(=O)n([C@@H](C)C(=O)O[C@@H](C)[C@H](Oc3cccc(F)c3)C(C)C)c(=O)oc12 [Compound 24]
pest or weed control at 25 ppm (Phakopsora pachyrhizi; [1]): > 80%
pest or weed control at 25 ppm (Phakopsora pachyrhizi; [6]): ≤ 80%
pest or weed control at 121.5 g/ha (Zymoseptoria tritici; [2]): ≤ 80%
pest or weed control at 121.5 g/ha (Zymoseptoria tritici; [3]): > 80%
pest or weed control at 121.5 g/ha (Puccinia triticina; [4]): > 80%
pest or weed control at 121.5 g/ha (Puccinia triticina; [5]): > 80%

SMILES: COc1ccnc2c(=O)n([C@@H](C)C(=O)O[C@@H](C)C(c3ccc(C)cc3)c3ccc(C)cc3)c(=O)oc12 [Compound 32, (S)-1,1-di-p-tolylpropan-2-yl-(S)-2-(8-methoxy-2,4-dioxo-2H-pyrido[2,3-e][1,3]oxazin-3(4H)-yl)propanoate]
pest or weed control at 25 ppm (Phakopsora pachyrhizi; [1]): ≤ 80%
pest or weed control at 25 ppm (Phakopsora pachyrhizi; [6]): ≤ 80%
pest or weed control at 121.5 g/ha (Zymoseptoria tritici; [2]): > 80%
pest or weed control at 121.5 g/ha (Zymoseptoria tritici; [3]): > 80%
pest or weed control at 121.5 g/ha (Puccinia triticina; [4]): > 80%
pest or weed control at 121.5 g/ha (Puccinia triticina; [5]): ≤ 80%

SMILES: COc1ccnc2c(=O)n([C@@H](C)C(=O)O[C@@H](C)[C@@H](c3ccc(C)cc3)c3ccc(F)cc3C)c(=O)oc12 [Compound 33]
pest or weed control at 25 ppm (Phakopsora pachyrhizi; [1]): > 80%
pest or weed control at 25 ppm (Phakopsora pachyrhizi; [6]): ≤ 80%
pest or weed control at 121.5 g/ha (Zymoseptoria tritici; [2]): > 80%
pest or weed control at 121.5 g/ha (Zymoseptoria tritici; [3]): > 80%
pest or weed control at 121.5 g/ha (Puccinia triticina; [4]): > 80%
pest or weed control at 121.5 g/ha (Puccinia triticina; [5]): ≤ 80%

SMILES: COc1ccnc2c(=O)n([C@@H](C)C(=O)O[C@@H](C)[C@H](c3ccc(C)cc3)c3ccc(C)cc3F)c(=O)oc12 [Compound 25]
pest or weed control at 25 ppm (Phakopsora pachyrhizi; [1]): ≤ 80%
pest or weed control at 121.5 g/ha (Zymoseptoria tritici; [2]): > 80%
pest or weed control at 121.5 g/ha (Zymoseptoria tritici; [3]): > 80%
pest or weed control at 121.5 g/ha (Puccinia triticina; [4]): > 80%
pest or weed control at 121.5 g/ha (Puccinia triticina; [5]): ≤ 80%
